In PubChem BioAssay (NCI):
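Each compound was tested at five concentrations against cells in 96-well plates for 48 hours. GI50 = concentration required for 50% inhibition of growth. Definition used: TGI = concentration required for complete inhibition of growth.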

Tests used:
Assay in all cases: growth of human tumour cells (NCI), 48 h
CCRF-CEM leukemia = tested on: CCRF-CEM leukemia
SK-MEL-28 melanoma = tested on: SK-MEL-28 melanoma
M14 melanoma = tested on: M14 melanoma
HT29 colon = tested on: HT29 colon
T-47D breast = tested on: T-47D breast
OVCAR-5 ovarian = tested on: OVCAR-5 ovarian
U251 CNS = tested on: U251 CNS
SK-MEL-2 melanoma = tested on: SK-MEL-2 melanoma
OVCAR-4 ovarian = tested on: OVCAR-4 ovarian
HCC-2998 colon = tested on: HCC-2998 colon
SK-MEL-5 melanoma = tested on: SK-MEL-5 melanoma
MOLT-4 leukemia = tested on: MOLT-4 leukemia
A498 renal = tested on: A498 renal
HS 578T breast = tested on: HS 578T breast
IGROV1 ovarian = tested on: IGROV1 ovarian
HOP-92 NSCLC = tested on: HOP-92 NSCLC
SN12C renal = tested on: SN12C renal
OVCAR-8 ovarian = tested on: OVCAR-8 ovarian
SR leukemia = tested on: SR leukemia
UO-31 renal = tested on: UO-31 renal
EKVX NSCLC = tested on: EKVX NSCLC
HL-60(TB) leukemia = tested on: HL-60(TB) leukemia
SNB-19 CNS = tested on: SNB-19 CNS
K-562 leukemia = tested on: K-562 leukemia
SK-OV-3 ovarian = tested on: SK-OV-3 ovarian
NCI-H460 lung = tested on: NCI-H460 lung
RXF 393 renal = tested on: RXF 393 renal
SF-268 CNS = tested on: SF-268 CNS
A549 NSCLC = tested on: A549 NSCLC
MALME-3M melanoma = tested on: MALME-3M melanoma
MDA-MB-231 breast = tested on: MDA-MB-231 breast
UACC-62 melanoma = tested on: UACC-62 melanoma
NCI/ADR-RES ovarian = tested on: NCI/ADR-RES ovarian
HCT-15 colon = tested on: HCT-15 colon
786-0 renal = tested on: 786-0 renal
CAKI-1 renal = tested on: CAKI-1 renal
HOP-62 NSCLC = tested on: HOP-62 NSCLC
TK-10 renal = tested on: TK-10 renal
SF-295 CNS = tested on: SF-295 CNS
MCF7 breast = tested on: MCF7 breast
UACC-257 melanoma = tested on: UACC-257 melanoma
NCI-H23 lung = tested on: NCI-H23 lung
NCI-H226 lung = tested on: NCI-H226 lung
ACHN renal = tested on: ACHN renal
PC-3 prostate = tested on: PC-3 prostate
NCI-H522 lung = tested on: NCI-H522 lung
MDA-MB-435 = tested on: MDA-MB-435

With `CC1(C)CC[C@]2(C(=O)Nc3ccccn3)CC[C@]3(C)C(=CC[C@@H]4[C@@]5(C)C/C(=C/c6ccncc6)C(=O)C(C)(C)[C@@H]5CC[C@]43C)[C@@H]2C1` the GI50 (CCRF-CEM leukemia) was 2.3 µM, the TGI (CCRF-CEM leukemia) was greater than 100 µM and the GI50 (SK-MEL-28 melanoma) was 2.28 µM. For the same compound, the TGI (SK-MEL-28 melanoma) was 6.59 µM, the GI50 (M14 melanoma) was 2.85 µM and the TGI (M14 melanoma) was greater than 100 µM. It also gave a GI50 (HT29 colon) of 2.17 µM, a TGI (HT29 colon) greater than 100 µM and a GI50 (T-47D breast) of 1.68 µM. For the same compound, the TGI (T-47D breast) was greater than 100 µM, the GI50 (OVCAR-5 ovarian) was 4.14 µM and the TGI (OVCAR-5 ovarian) was greater than 100 µM. It also gave a GI50 (U251 CNS) of 1.82 µM, a TGI (U251 CNS) of 4.32 µM and a GI50 (SK-MEL-2 melanoma) of 3.63 µM. For the same compound, the TGI (SK-MEL-2 melanoma) was greater than 100 µM, the GI50 (OVCAR-4 ovarian) was 2.9 µM and the TGI (OVCAR-4 ovarian) was greater than 100 µM. It also gave a GI50 (HCC-2998 colon) of 1.81 µM, a TGI (HCC-2998 colon) of 4.82 µM and a GI50 (SK-MEL-5 melanoma) of 1.59 µM. The TGI (SK-MEL-5 melanoma) was 3.1 µM, the GI50 (MOLT-4 leukemia) was 2.27 µM and the TGI (MOLT-4 leukemia) was greater than 100 µM. It also gave a GI50 (A498 renal) of 2.05 µM, a TGI (A498 renal) of 5.18 µM and a GI50 (HS 578T breast) of 2.96 µM. For the same compound, the TGI (HS 578T breast) was greater than 100 µM, the GI50 (IGROV1 ovarian) was 3.12 µM and the TGI (IGROV1 ovarian) was 67.3 µM. It also gave a GI50 (HOP-92 NSCLC) of 1.24 µM, a TGI (HOP-92 NSCLC) of 7 µM and a GI50 (SN12C renal) of 2.57 µM. For the same compound, the TGI (SN12C renal) was greater than 100 µM, the GI50 (OVCAR-8 ovarian) was 3.76 µM and the TGI (OVCAR-8 ovarian) was greater than 100 µM. The GI50 (SR leukemia) was 0.702 µM, the TGI (SR leukemia) was greater than 100 µM and the GI50 (UO-31 renal) was 1.38 µM. For the same compound, the TGI (UO-31 renal) was 2.74 µM, the GI50 (EKVX NSCLC) was 3.8 µM and the TGI (EKVX NSCLC) was greater than 100 µM. For the same compound, the GI50 (HL-60(TB) leukemia) was 1.24 µM, the TGI (HL-60(TB) leukemia) was 5.68 µM and the GI50 (SNB-19 CNS) was 5.82 µM. The TGI (SNB-19 CNS) was greater than 100 µM, the GI50 (K-562 leukemia) was 1.78 µM and the TGI (K-562 leukemia) was greater than 100 µM. It also gave a GI50 (SK-OV-3 ovarian) greater than 100 µM, a TGI (SK-OV-3 ovarian) greater than 100 µM and a GI50 (NCI-H460 lung) of 1.51 µM. It also gave a TGI (NCI-H460 lung) of 3.9 µM, a GI50 (RXF 393 renal) of 1.67 µM and a TGI (RXF 393 renal) of 3.37 µM. It also gave a GI50 (SF-268 CNS) of 9.45 µM, a TGI (SF-268 CNS) greater than 100 µM and a GI50 (A549 NSCLC) of 2 µM. It also gave a TGI (A549 NSCLC) greater than 100 µM, a GI50 (MALME-3M melanoma) of 2.25 µM and a TGI (MALME-3M melanoma) of 6.15 µM. For the same compound, the GI50 (MDA-MB-231 breast) was 2.92 µM, the TGI (MDA-MB-231 breast) was 19.5 µM and the GI50 (UACC-62 melanoma) was 1.85 µM. The TGI (UACC-62 melanoma) was 8.89 µM, the GI50 (NCI/ADR-RES ovarian) was 4.48 µM and the TGI (NCI/ADR-RES ovarian) was greater than 100 µM. For the same compound, the GI50 (HCT-15 colon) was 1.85 µM, the TGI (HCT-15 colon) was 6.63 µM and the GI50 (786-0 renal) was 2.88 µM. For the same compound, the TGI (786-0 renal) was greater than 100 µM, the GI50 (CAKI-1 renal) was 2.69 µM and the TGI (CAKI-1 renal) was greater than 100 µM. For the same compound, the GI50 (HOP-62 NSCLC) was 4.41 µM, the TGI (HOP-62 NSCLC) was greater than 100 µM and the GI50 (TK-10 renal) was 5.75 µM. For the same compound, the TGI (TK-10 renal) was greater than 100 µM, the GI50 (SF-295 CNS) was 2.37 µM and the TGI (SF-295 CNS) was 29.3 µM. It also gave a GI50 (MCF7 breast) of 0.938 µM, a TGI (MCF7 breast) of 15.3 µM and a GI50 (UACC-257 melanoma) of 2.2 µM. It also gave a TGI (UACC-257 melanoma) greater than 100 µM, a GI50 (NCI-H23 lung) of 3.18 µM and a TGI (NCI-H23 lung) greater than 100 µM. For the same compound, the GI50 (NCI-H226 lung) was 1.97 µM, the TGI (NCI-H226 lung) was 6.04 µM and the GI50 (ACHN renal) was 2.08 µM. The TGI (ACHN renal) was 5.98 µM, the GI50 (PC-3 prostate) was 0.624 µM and the TGI (PC-3 prostate) was greater than 100 µM. It also gave a GI50 (NCI-H522 lung) of 2.09 µM, a TGI (NCI-H522 lung) of 27.7 µM and a GI50 (MDA-MB-435) of 2.58 µM. It also gave a TGI (MDA-MB-435) greater than 100 µM.
